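96-well plates; 48 h exposure; 5 concentrations. Endpoints by linear interpolation between flanking doses. Not reached: highest tested concentration assigned. TGI is the concentration that stops growth completely.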
Tested on: P388 leukemia
Assay: NCI tumour cell line growth inhibition, 48 h

SMILES: CCCCCCCCCCCCCCCCCCOCC(O)CO (stereo unspecified)
- TGI: > 14.1 µM
